Test results taken from PubChem BioAssay (NCI).
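The concentration for 50% growth inhibition is given as GI50. TGI marks complete inhibition of growth.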

Experiments:
Test in all cases: growth of human tumour cells (NCI), 384-well format
K-562 leukemia = test system: K-562 leukemia
HCT-15 colon = test system: HCT-15 colon
UACC-62 melanoma = test system: UACC-62 melanoma
OVCAR-3 ovarian = test system: OVCAR-3 ovarian
NCI-H226 lung = test system: NCI-H226 lung
MALME-3M melanoma = test system: MALME-3M melanoma
A549 NSCLC = test system: A549 NSCLC
SF-539 CNS = test system: SF-539 CNS
A498 renal = test system: A498 renal
NCI-H460 NSCLC = test system: NCI-H460 NSCLC
OVCAR-5 ovarian = test system: OVCAR-5 ovarian
OVCAR-4 ovarian = test system: OVCAR-4 ovarian
MCF7 breast = test system: MCF7 breast
RXF 393 renal = test system: RXF 393 renal
MOLT-4 leukemia = test system: MOLT-4 leukemia
MDA-MB-231 breast = test system: MDA-MB-231 breast
MDA-MB-468 breast = test system: MDA-MB-468 breast
HCC-2998 colon = test system: HCC-2998 colon
LOX IMVI melanoma = test system: LOX IMVI melanoma
SN12C renal = test system: SN12C renal
U251 glioblastoma = test system: U251 glioblastoma
SW-620 colon = test system: SW-620 colon
SK-OV-3 ovarian = test system: SK-OV-3 ovarian
NCI-H322M lung = test system: NCI-H322M lung
NCI-H522 lung = test system: NCI-H522 lung
PC-3 prostate = test system: PC-3 prostate
DU-145 prostate = test system: DU-145 prostate
SK-MEL-5 melanoma = test system: SK-MEL-5 melanoma
BT-549 breast = test system: BT-549 breast
UACC-257 melanoma = test system: UACC-257 melanoma
CAKI-1 renal = test system: CAKI-1 renal
HL-60(TB) leukemia = test system: HL-60(TB) leukemia
SK-MEL-2 melanoma = test system: SK-MEL-2 melanoma
HOP-92 NSCLC = test system: HOP-92 NSCLC
ACHN renal = test system: ACHN renal
HOP-62 NSCLC = test system: HOP-62 NSCLC
SR leukemia = test system: SR leukemia
SNB-19 CNS = test system: SNB-19 CNS
MDA-MB-435 melanoma = test system: MDA-MB-435 melanoma
OVCAR-8 ovarian = test system: OVCAR-8 ovarian
RPMI-8226 leukemia = test system: RPMI-8226 leukemia
IGROV1 ovarian = test system: IGROV1 ovarian
M14 melanoma = test system: M14 melanoma
T-47D breast = test system: T-47D breast
SK-MEL-28 melanoma = test system: SK-MEL-28 melanoma
SF-268 CNS = test system: SF-268 CNS
TK-10 renal = test system: TK-10 renal
HCT-116 colon = test system: HCT-116 colon
786-0 renal = test system: 786-0 renal
CCRF-CEM leukemia = test system: CCRF-CEM leukemia
COLO 205 colon = test system: COLO 205 colon
KM12 colon = test system: KM12 colon
SF-295 CNS = test system: SF-295 CNS
UO-31 renal = test system: UO-31 renal
HT29 colon = test system: HT29 colon
NCI/ADR-RES ovarian = test system: NCI/ADR-RES ovarian
NCI-H23 lung = test system: NCI-H23 lung

c1ccc(Cn2c(-c3ccc(OC[C@H](C4CCNCC4)n4c(-c5ccccc5)nc5ccccc54)cc3)nc3ccccc32)cc1
GI50 (K-562 leukemia): 1500 nM
TGI (K-562 leukemia): 2830 nM
GI50 (HCT-15 colon): 1860 nM
TGI (HCT-15 colon): 3280 nM
GI50 (UACC-62 melanoma): 1890 nM
TGI (UACC-62 melanoma): 3300 nM
GI50 (OVCAR-3 ovarian): 1810 nM
TGI (OVCAR-3 ovarian): 3220 nM
GI50 (NCI-H226 lung): 1770 nM
TGI (NCI-H226 lung): 3160 nM
GI50 (MALME-3M melanoma): 1790 nM
TGI (MALME-3M melanoma): 3180 nM
GI50 (A549 NSCLC): 1840 nM
TGI (A549 NSCLC): 3260 nM
GI50 (SF-539 CNS): 1660 nM
TGI (SF-539 CNS): 3030 nM
GI50 (A498 renal): 1700 nM
TGI (A498 renal): 3080 nM
GI50 (NCI-H460 NSCLC): 1700 nM
TGI (NCI-H460 NSCLC): 3120 nM
GI50 (OVCAR-5 ovarian): 2030 nM
TGI (OVCAR-5 ovarian): 3470 nM
GI50 (OVCAR-4 ovarian): 1510 nM
TGI (OVCAR-4 ovarian): 2850 nM
GI50 (MCF7 breast): 1610 nM
TGI (MCF7 breast): 2980 nM
GI50 (RXF 393 renal): 1580 nM
TGI (RXF 393 renal): 2920 nM
GI50 (MOLT-4 leukemia): 1160 nM
TGI (MOLT-4 leukemia): 2410 nM
GI50 (MDA-MB-231 breast): 1890 nM
TGI (MDA-MB-231 breast): 3300 nM
GI50 (MDA-MB-468 breast): 1970 nM
TGI (MDA-MB-468 breast): 3390 nM
GI50 (HCC-2998 colon): 1360 nM
TGI (HCC-2998 colon): 2650 nM
GI50 (LOX IMVI melanoma): 2330 nM
TGI (LOX IMVI melanoma): 3800 nM
GI50 (SN12C renal): 1820 nM
TGI (SN12C renal): 3220 nM
GI50 (U251 glioblastoma): 1590 nM
TGI (U251 glioblastoma): 2960 nM
GI50 (SW-620 colon): 1740 nM
TGI (SW-620 colon): 3140 nM
GI50 (SK-OV-3 ovarian): 1680 nM
TGI (SK-OV-3 ovarian): 3060 nM
GI50 (NCI-H322M lung): 1690 nM
TGI (NCI-H322M lung): 3060 nM
GI50 (NCI-H522 lung): 1890 nM
TGI (NCI-H522 lung): 3290 nM
GI50 (PC-3 prostate): 1830 nM
TGI (PC-3 prostate): 3250 nM
GI50 (DU-145 prostate): 1860 nM
TGI (DU-145 prostate): 3280 nM
GI50 (SK-MEL-5 melanoma): 1820 nM
TGI (SK-MEL-5 melanoma): 3220 nM
GI50 (BT-549 breast): 1700 nM
TGI (BT-549 breast): 3080 nM
GI50 (UACC-257 melanoma): 1270 nM
TGI (UACC-257 melanoma): 2530 nM
GI50 (CAKI-1 renal): 1840 nM
TGI (CAKI-1 renal): 3240 nM
GI50 (HL-60(TB) leukemia): 1790 nM
TGI (HL-60(TB) leukemia): 3180 nM
GI50 (SK-MEL-2 melanoma): 1510 nM
TGI (SK-MEL-2 melanoma): 2840 nM
GI50 (HOP-92 NSCLC): 1630 nM
TGI (HOP-92 NSCLC): 2990 nM
GI50 (ACHN renal): 1840 nM
TGI (ACHN renal): 3250 nM
GI50 (HOP-62 NSCLC): 2020 nM
TGI (HOP-62 NSCLC): 3460 nM
GI50 (SR leukemia): 1170 nM
TGI (SR leukemia): 2410 nM
GI50 (SNB-19 CNS): 1970 nM
TGI (SNB-19 CNS): 3400 nM
GI50 (MDA-MB-435 melanoma): 2000 nM
TGI (MDA-MB-435 melanoma): 3430 nM
GI50 (OVCAR-8 ovarian): 1810 nM
TGI (OVCAR-8 ovarian): 3220 nM
GI50 (RPMI-8226 leukemia): 971 nM
TGI (RPMI-8226 leukemia): 2140 nM
GI50 (IGROV1 ovarian): 1650 nM
TGI (IGROV1 ovarian): 3020 nM
GI50 (M14 melanoma): 1790 nM
TGI (M14 melanoma): 3180 nM
GI50 (T-47D breast): 1610 nM
TGI (T-47D breast): 2970 nM
GI50 (SK-MEL-28 melanoma): 1830 nM
TGI (SK-MEL-28 melanoma): 3230 nM
GI50 (SF-268 CNS): 1800 nM
TGI (SF-268 CNS): 3200 nM
GI50 (TK-10 renal): 1850 nM
TGI (TK-10 renal): 3250 nM
GI50 (HCT-116 colon): 1450 nM
TGI (HCT-116 colon): 2780 nM
GI50 ([…]-0 renal): 1730 nM
TGI (786-0 renal): 3120 nM
GI50 (CCRF-CEM leukemia): 1260 nM
TGI (CCRF-CEM leukemia): 2520 nM
GI50 (COLO 205 colon): 1820 nM
TGI (COLO 205 colon): 3230 nM
GI50 (KM12 colon): 1800 nM
TGI (KM12 colon): 3210 nM
GI50 (SF-295 CNS): 1860 nM
TGI (SF-295 CNS): 3270 nM
GI50 (UO-31 renal): 1870 nM
TGI (UO-31 renal): 3270 nM
GI50 (HT29 colon): 1660 nM
TGI (HT29 colon): 3040 nM
GI50 (NCI/ADR-RES ovarian): 2400 nM
TGI (NCI/ADR-RES ovarian): 5200 nM
GI50 (NCI-H23 lung): 2230 nM
TGI (NCI-H23 lung): 3680 nM
